The values below are quoted from earlier work in US11094527B2, “Wet clean solutions to prevent pattern collapse” (INTERNATIONAL BUSINESS MACHINES CORPORATION, priority 2018, dated 2021).

Assay in series [1]: not given
This is another data set of the same source.

Where two headings read alike, the source gives them in different places.

`c1ccccc1` [Benzene]: the “Surface tension (at about 20° C.)” value is given as less than 30 mN/m.
As to `CC(C)O` [Isopropyl alcohol, reference compound], the “Surface tension (at about 20° C.)” value was less than 30 mN/m. Moreover, the “Water solubility (in words)” value in series [1] is given as “miscible in water”. Also, the Water solubility result in series [1] (temperature not given) was “Miscible”.
Take Diethyl ether: the “Surface tension (at about 20° C.)” value is 16.5 mN/m. Besides, the “Water solubility (in words)” value in series [1] was “low water solubility”. The Water solubility in series [1] (20° C.) is given as 6.9 g/100 mL.
